Measurements reported in patent US20140194559A1, “Novel Inhibitor Compositions and Methods of Use” (NuFarm UK Limited, priority 2011, published 2014).

What was measured:
[1] = Solubility of antipolymerants in ethylbenzene; assay type: physicochemical; conditions: solvent ethylbenzene
Source text: (§1) In order to highlight the increased antipolymerant content that can be achieved, the solubility of three antipolymerants in ethylbenzene, a widely used solvent for supplying antipolymerants for styrene monomer production, is compared with concentration when the antipolymerant is supplied as a SC. The comparative data for the antipolymerants are set out in Table 1.
Thus, it is clear that, for all three active components, the concentration achieved in the SC is far greater than that observed in ethylbenzene. The same concentration could also be obtained when two of the active components were combined in the SC. By contrast, combining more than one of the actives in ethylbenzene, the total concentration of actives was reduced. Thus, for a combination of 2,5-di-tert-butyl-p-benzoquinone and dibenzylhydroxylamine, the total concentration in ethylbenzene was <10 w/w %.

[2] = Maximum concentration of actives in suspension concentrate (SC); assay type: physicochemical; conditions: for Concentration in SC: maximum concentration of active in suspension concentrate
Experimental: To the liquid carrier (approximately 80% of the required amount) is added the required quantity of the dispersing agent and the mixture is stirred until a fully homogeneous solution is formed. Under high shear conditions, the desired amount of active inhibitor component is added to the dispersant solution and the formulation is stirred until it becomes completely homogeneous. The resulting dispersed active inhibitor is transferred to a bead mill where it is continuously milled until the required particle size distribution is obtained. Desirably, the particle size is less than 10 microns. Under additional stirring, the remaining liquid carrier, optionally a preservative agent and optionally a thickening agent are added to the milled formulation until a homogeneous suspension concentrate is formed. The required quantities of the components of the formulation are in each case determined with reference to the scale of the process which is being conducted.
as §1
(§2) This effect is further illustrated by reference to a further example wherein a stable suspension concentrate of phenothiazine (PTZ), containing 40 percent by weight of the PTZ component, was easily obtained using the above methodology. PTZ is a widely used inhibitor in (meth)acrylic acid and ester processes, but has low solubility in most solvents that are compatible with such processes. In most industrial cases, PTZ is supplied in its solid form and dissolved in the monomer to form a dilute solution for dosing into the monomer purification process. Thus, for example, in laboratory tests, PTZ had the following solubilities: acrylic acid (2.6 w/w %), methacrylic acid (2.4 w/w %), n-butyl acrylate (9.7 w/w %), methyl methacrylate (8.4 w/w %).

[3] = hazard classification; cited from earlier work
[4] = Batch tests: polymer content in refluxing styrene monomer; conditions: for Effect: batch test, styrene, 120° C., inhibitor or retarder
Experimental: The particular ethylenically unsaturated compound used in the tests was a vinyl aromatic monomer, specifically styrene monomer. The use of a vinyl aromatic monomer for this purpose is illustrative and is not intended to exclude other ethylenically unsaturated compounds from the scope of this invention.
Batch tests (the results of which are detailed in Table 2), and continuous flow tests were carried out in order to represent different types of processing conditions which can occur in the industrial processing of ethylenically unsaturated compounds. These tests compare the compositions of the present invention with compositions of the prior art.
The batch test was designed in order to show whether a test composition is an inhibitor or a retarder. The tests were carried out in styrene monomer refluxing under reduced pressure at 120° C. in order to reduce the presence of atmospheric oxygen to such low levels as can be expected in a commercial styrene monomer purification plant.
For the batch tests the vinyl aromatic monomer composition containing the test substances was heated to 120° C. and stirred under reduced pressure so that it refluxed at the test temperature. Samples were taken at intervals of time and tested for polymer content in order to assess the effectiveness of polymerisation control.

[5] = Laboratory solubility tests of PTZ in monomers; assay type: physicochemical
Source text: as §2

[6] = Acrylic acid tube test (inhibition period); conditions: 25 ppm inhibitor, lean air (5% oxygen in nitrogen), 120° C., until first white precipitate
Experimental: In a typical test, a series of tubes containing acrylic acid and inhibitor was sparged with a lean air mixture (5% oxygen in nitrogen). These tubes were then heated at 120° C. until the first signs of polymerisation were detected (by means of the formation of white precipitate), and this was determined as the inhibition period.

ON(Cc1ccccc1)Cc1ccccc1 [DBHA, N,N-dibenzyl hydroxylamine]
Solubility in ethylbenzene [1]: 1.6 w/w % | Concentration in SC [2]: 45.0 w/w % | Dermal Toxicity [3]: No | Oral Toxicity [3]: No | Toxic by Inhalation [3]: No

CC(C)(C)C1=CC(=O)C(C(C)(C)C)=CC1=O [BQ, 2,5-di-tert-butyl-p-benzoquinone]
Solubility in ethylbenzene [1]: 11.9 w/w % | Concentration in SC [2]: 45.0 w/w % | Dermal Toxicity [3]: No | Oral Toxicity [3]: No | Toxic by Inhalation [3]: No

CC(C)(C)c1cc(O)c(C(C)(C)C)cc1O [HQ, 2,5-di-tert-butyl hydroquinone]
Solubility in ethylbenzene [1]: 6.7 w/w % | Concentration in SC [2]: 45.0 w/w %

CCC(C)c1cc([N+](=O)[O-])cc([N+](=O)[O-])c1O (stereo not shown) [DNBP, 4,6-Dinitro-2-sec-butyl phenol]
Effect [4]: retarder | Effect ([4]; listed as Control 1): Retarder | Polymer (ppm) @ (time) 180 mins ([4]; styrene refluxing under reduced pressure at 120° C., 180 mins, component doses in ppm as in table): 4000 ppm | Dermal Toxicity [3]: Yes

c1ccc2c(c1)Nc1ccccc1S2 [PTZ, phenothiazine]
PTZ content of stable suspension concentrate ([2]; stable suspension concentrate): 40 percent by weight | solubility in acrylic acid ([5]; acrylic acid): 2.6 w/w % | solubility in methacrylic acid ([5]; methacrylic acid): 2.4 w/w % | solubility in methyl methacrylate ([5]; methyl methacrylate): 8.4 w/w % | solubility in n-butyl acrylate ([5]; n-butyl acrylate): 9.7 w/w % | Inhibition Period [6]: 531 min
